Here are results for 3 molecules from PMC5077133, “Towards Development of Small Molecule Lipid II Inhibitors as Novel Antibiotics” (PLoS ONE, 2016).

A value given as a limit tells only on which side of the number the result lay.

The subject of data set [1] is A. baumanii ATCC 19606. Kind of data set: Antibacterial activity (MIC, broth dilution). In kind it is cell-based, Acinetobacter baumanii. Particulars: CLSI, in µg/mL. The source says:
Staphylococcus aureus ATCC 29213, Escherichia coli ATCC 25922, Enterococcus faecalis ATCC 29212, Streptococcus pneumonia ATCC 49619 and Acinetobacter baumanii ATCC 19606 were obtained from Microbiologics (St. Cloud, MN). E. faecalis ATCC 51575, ATCC 51299 and REMEL C99707 and E. faecium ATCC 51559 (MDR), REMEL IH79985 and REMEL C110914 were generously provided by the Laboratory of Pathology, University of Maryland Baltimore School of Medicine. Unless stated otherwise, chemicals and reagents were purchased from Sigma.
(§1) Determination of the Minimal Inhibitory Concentrations (MIC) by dilution was carried out by broth dilution according to CLSI standards.
For orientation: In broth dilution the organism is exposed to a series of concentrations in liquid medium.

In data set [2] the test system is E. aerogenes ATCC 13048. Kind of data set: Antibacterial activity (MIC, broth dilution). Particulars: CLSI. The data set is classed as cell-based. The protocol:
as §1

Data set [3] has as its system E. cloacae ATCC 13047. Kind of data set: Antibacterial activity (MIC, broth dilution). In kind it is cell-based. Particulars: CLSI. Here is the method: as §1
The test system of data set [4] is E. faecium EF1509 (VRE). Kind of data set: Antibacterial activity (MIC, broth dilution). The data set is classed as cell-based. Particulars: CLSI, in µg/mL. The protocol: as §1
Data set [5] relates to E. faecium F118 (VRE). Kind of data set: Antibacterial activity (MIC, broth dilution). In kind it is cell-based. Particulars: CLSI, in µg/mL. Here is the method: as §1
The subject of data set [6] is K. pneumoniae NR-15410 (KPC). In words: Antibacterial activity (MIC, broth dilution). In kind it is cell-based. Particulars: CLSI. The protocol: as §1
The subject of data set [7] is K. pneumoniae NR-15411 (KPC). Kind of data set: Antibacterial activity (MIC, broth dilution). The data set is classed as cell-based. Particulars: CLSI. Here is the method: as §1
Data set [8] concerns P. aeruginosa ATCC 27853. Kind of data set: Antibacterial activity (MIC, broth dilution). Particulars: CLSI. The data set is classed as cell-based. The protocol:
as §1

Data set [9] has as its system P. aeruginosa PA01. In words: Antibacterial activity (MIC, broth dilution). The data set is classed as cell-based. Particulars: CLSI. Here is the method: as §1
Data set [10] concerns P. aeruginosa X13273. Kind of data set: Antibacterial activity (MIC, broth dilution). Particulars: CLSI, in µg/mL. In kind it is cell-based. The protocol: as §1
For data set [11], the system named is S. aureus HFH-30123 (MRSA). Kind of data set: Antibacterial activity (MIC, broth dilution). In kind it is cell-based. The settings on record: CLSI. Here is the method:
as §1

Data set [12] deals with S. aureus MRSA 1094. In words: Antibacterial activity (MIC, broth dilution). In kind it is cell-based. Particulars: CLSI. The protocol: as §1
In data set [13] the test system is HeLa cells. In words: Cytotoxicity against mammalian cells (MTS assay). The data set is classed as cell-based. The protocol: The cytotoxicity concentration of antibacterial compounds that produces half maximal decrease in viability (CC50) against mammalian cells (HeLa, ATCC CCL-2.2) was determined as described. The effect of compounds on HeLa cell viability was assessed in triplicate by measuring the mitochondrial activity using MTS assays according to the manufacturer’s instructions (Cell Titer 96 proliferation assay, Promega). The cells were incubated for 72 hours in RPMI1640 medium containing the compounds at final concentrations ranging from 64 to 0.125 μg/ml. CC50 was determined using a standard curve of serially diluted untreated cells in each experiment.
(Tetrazolium assays rely on reduction of a dye to a coloured formazan, in cell work by metabolically active cells.)

Data set [14] is described as follows: Lipid II binding by Surface Plasmon Resonance. The settings on record: SPR, immobilized 3-Lipid II, 25°C. Here is the method:
Short-chain water-soluble Lipid II containing a lipid tail of three isoprene units was generated and purified essentially as described. Typically, M. flavus vesicles (120 μmol lipid-Pi) were incubated together with 500 μmol UDP-GlcNAc, 500 μmol UDP-MurNAC-pentapeptide and 400 μmol farnesyl phosphate in 100 mM Tris-HCl pH 8.0, 5 mM MgCl2. The incubation lasted two hours at room temperature for 3-P. The synthesis of 3-Lipid II was followed using RP-8 reversed phase TLC (Merck) developed in 75% methanol. For purification, the membranes were removed by centrifugation at 40,000 x g and the supernatant was collected and loaded on a C18 HPLC column and eluted with a linear gradient from 50 mM ammonium bicarbonate to 100% methanol in 30 minutes. Farnesyl-Lipid II (3-Lipid II) eluted at approximately 60% methanol. Its identity was confirmed by mass spectroscopy. Surface Plasmon Resonance binding experiments were carried out on a BIAcore T100 system (BIAcore Inc., Piscataway, NY) at 25°C. The assay buffer was 10 mM HEPES, 150 mM NaCl, 0.05% surfactant P20, pH 7.4 (± 3 mM EDTA) supplemented with 10% DMSO. 3-Lipid II (50 RUs) was immobilized on CM5 sensor chips using the amine-coupling chemistry recommended by the manufacturer. For initial determination of binding, compounds were introduced into the flow-cells (30 μl/min) in the running buffer at 10 μM. Resonance signals were corrected for nonspecific binding by subtracting the background of the control flow-cell. After each analysis, the sensor chip surfaces were regenerated with 50 mM NaOH for 30 s at a flow rate 100 μl/min, and equilibrated with the buffer prior to next injection. For binding kinetics studies, binding isotherms were analyzed with manufacturer-supplied software for BIAcore T100.

Turning to `Cc1ccc(-c2cc(/C=C/c3ccc(N(C)C)cc3)[o+]c(-c3ccc(C)c(C)c3)c2)cc1C.F[B-](F)(F)F` [6jc-59-1], the “Antibacterial activity (MIC) A. baumanii ATCC 19606” value in [1] is on record as “>=64”. In data set [2], this molecule showed an Antibacterial activity (MIC) E. aerogenes ATCC 13048 of at least 64 µg/mL. In addition, the Antibacterial activity (MIC) E. cloacae ATCC 13047 in data set [3] was at least 64 µg/mL. Also, the “Antibacterial activity (MIC) E. faecium EF1509 (VRE)” value in data set [4] was determined as 4. In addition, the “Antibacterial activity (MIC) E. faecium F118 (VRE)” value in data set [5] was 4. The molecule also returned an Antibacterial activity (MIC) K. pneumoniae NR-15410 (KPC) in [6] of at least 64 µg/mL. Also, in data set [7], the Antibacterial activity (MIC) K. pneumoniae NR-15411 (KPC) is at least 64 µg/mL. Moreover, in [8], the Antibacterial activity (MIC) P. aeruginosa ATCC 27853 is at least 64 µg/mL. The same molecule yielded an Antibacterial activity (MIC) P. aeruginosa PA01 in data set [9] of at least 64 µg/mL. In [10], the “Antibacterial activity (MIC) P. aeruginosa X13273” value is “>=64”. In data set [11], this molecule came in with an Antibacterial activity (MIC) S. aureus HFH-30123 (MRSA) of 2 µg/mL. In addition, the Antibacterial activity (MIC) S. aureus MRSA 1094 in data set [12] stood at 2 µg/mL. The “CC50% (72 h HeLa cells)” value in [13] is “<.78125”. Further, the affinity in [14], expressed as Kd, was 1900 ± 300 nM.

Turning to `Cn1cc(/C=C/c2cc(-c3ccccc3)cc(-c3ccccc3)[o+]2)c2ccccc21.F[B-](F)(F)F` [6jc66-1], the “Antibacterial activity (MIC) A. baumanii ATCC 19606” value in [1] came to 45.25. Also, in data set [2], the Antibacterial activity (MIC) E. aerogenes ATCC 13048 is at least 64 µg/mL. The molecule further had an Antibacterial activity (MIC) E. cloacae ATCC 13047 in data set [3] of at least 64 µg/mL. Further, the “Antibacterial activity (MIC) E. faecium EF1509 (VRE)” value in data set [4] worked out at 4. Besides, the “Antibacterial activity (MIC) E. faecium F118 (VRE)” value in [5] is 8. Further, the Antibacterial activity (MIC) K. pneumoniae NR-15410 (KPC) in [6] is at least 64 µg/mL. Besides, the Antibacterial activity (MIC) K. pneumoniae NR-15411 (KPC) in data set [7] was at least 64 µg/mL. In [8], the Antibacterial activity (MIC) P. aeruginosa ATCC 27853 was at least 64 µg/mL. For the same molecule, the Antibacterial activity (MIC) P. aeruginosa PA01 in data set [9] is at least 64 µg/mL. In [10], the “Antibacterial activity (MIC) P. aeruginosa X13273” value was “>=64”. In data set [11], this molecule had an Antibacterial activity (MIC) S. aureus HFH-30123 (MRSA) of 4 µg/mL. In [12], this molecule returned an Antibacterial activity (MIC) S. aureus MRSA 1094 of 2.83 µg/mL. Moreover, the “CC50% (72 h HeLa cells)” value in data set [13] worked out at 1.36. In addition, the equilibrium dissociation constant (Kd) (usually the constant that tells how readily two partners part at equilibrium) in data set [14] was determined as 2900 ± 300 nM.

As to `Cc1cc(/C=C/C=C/c2ccc(N(C)C)cc2)cc(C)[o+]1.F[B-](F)(F)F` [6jc38], the “Antibacterial activity (MIC) A. baumanii ATCC 19606” value in data set [1] is given as “>=64”. The Antibacterial activity (MIC) E. aerogenes ATCC 13048 in data set [2] is at least 64 µg/mL. Also, in data set [3], the Antibacterial activity (MIC) E. cloacae ATCC 13047 was at least 64 µg/mL. Further, in data set [4], the “Antibacterial activity (MIC) E. faecium EF1509 (VRE)” value is listed as “>=64”. Further, the “Antibacterial activity (MIC) E. faecium F118 (VRE)” value in data set [5] is reported as “>=64”. Further, the Antibacterial activity (MIC) K. pneumoniae NR-15410 (KPC) in data set [6] is at least 64 µg/mL. The Antibacterial activity (MIC) K. pneumoniae NR-15411 (KPC) in [7] was at least 64 µg/mL. Further, the Antibacterial activity (MIC) P. aeruginosa ATCC 27853 in data set [8] was at least 64 µg/mL. This molecule registered an Antibacterial activity (MIC) P. aeruginosa PA01 in data set [9] of at least 64 µg/mL. Also, in data set [10], the “Antibacterial activity (MIC) P. aeruginosa X13273” value is recorded as “>=64”. This molecule also came in with an Antibacterial activity (MIC) S. aureus HFH-30123 (MRSA) in [11] of at least 64 µg/mL. This molecule gave an Antibacterial activity (MIC) S. aureus MRSA 1094 in [12] of 64 µg/mL. Moreover, the “CC50% (72 h HeLa cells)” value in [13] was above 32. Besides, in data set [14], the “Lipid II binding Kd” value was “No”.
